Laboratory results as given in patent publication US20220194911A1, “NOVEL COMPOUND FOR INHIBITING HISTONE ACETYLTRANSFERASE P300 AND ANTIFIBROTIC COMPOSITION COMPRISING SAME” (REFURE LIFE SCIENCE INC., priority 2019, published 2022).

Target: HAT p300 (histone acetyltransferase p300) (Homo sapiens, UniProt Q09472)
Experiment: HAT activity kit assay (Biovision K332), inhibition of HAT activity of p300
Format: biochemical
Conditions: for HAT p300 activity inhibitory effect: diluted to 100 μM, FIG. 9
Experimental: Candidates 1 to 67, which are HAT inhibitors manufactured based on the PCAF structure, and HAT-24, HAT-26, and HAT-28 were diluted to 100 μM, and the degree of inhibition of HAT activity of p300 (inhibitory activity) was then determined using a kit for measuring HAT activity (Biovision, Cat No. K332, U.S.A) according to the method provided by the manufacturer. Here, the tissue was treated with C646 (HAT inhibitor) as a positive control.
Candidates 1 to 14 having a good HAT activity inhibitory effect in Section were diluted to concentrations of 0.5 μM, 1 μM, 10 μM, and 100 μM. Thereafter, the degree of inhibition of HAT activity was determined in the same manner as in Section.
Synthesis Examples 1 to 19 were diluted to 100 μM, and the degree of inhibition of HAT p300 activity was then determined in the same manner as in Section. Here, the tissues were treated with C646 and Candidate 12 (HAT-12) as the control, instead of Synthesis Examples 1 to 19.

HAT p300 (histone acetyltransferase p300), sequence (Q09472 whole entry): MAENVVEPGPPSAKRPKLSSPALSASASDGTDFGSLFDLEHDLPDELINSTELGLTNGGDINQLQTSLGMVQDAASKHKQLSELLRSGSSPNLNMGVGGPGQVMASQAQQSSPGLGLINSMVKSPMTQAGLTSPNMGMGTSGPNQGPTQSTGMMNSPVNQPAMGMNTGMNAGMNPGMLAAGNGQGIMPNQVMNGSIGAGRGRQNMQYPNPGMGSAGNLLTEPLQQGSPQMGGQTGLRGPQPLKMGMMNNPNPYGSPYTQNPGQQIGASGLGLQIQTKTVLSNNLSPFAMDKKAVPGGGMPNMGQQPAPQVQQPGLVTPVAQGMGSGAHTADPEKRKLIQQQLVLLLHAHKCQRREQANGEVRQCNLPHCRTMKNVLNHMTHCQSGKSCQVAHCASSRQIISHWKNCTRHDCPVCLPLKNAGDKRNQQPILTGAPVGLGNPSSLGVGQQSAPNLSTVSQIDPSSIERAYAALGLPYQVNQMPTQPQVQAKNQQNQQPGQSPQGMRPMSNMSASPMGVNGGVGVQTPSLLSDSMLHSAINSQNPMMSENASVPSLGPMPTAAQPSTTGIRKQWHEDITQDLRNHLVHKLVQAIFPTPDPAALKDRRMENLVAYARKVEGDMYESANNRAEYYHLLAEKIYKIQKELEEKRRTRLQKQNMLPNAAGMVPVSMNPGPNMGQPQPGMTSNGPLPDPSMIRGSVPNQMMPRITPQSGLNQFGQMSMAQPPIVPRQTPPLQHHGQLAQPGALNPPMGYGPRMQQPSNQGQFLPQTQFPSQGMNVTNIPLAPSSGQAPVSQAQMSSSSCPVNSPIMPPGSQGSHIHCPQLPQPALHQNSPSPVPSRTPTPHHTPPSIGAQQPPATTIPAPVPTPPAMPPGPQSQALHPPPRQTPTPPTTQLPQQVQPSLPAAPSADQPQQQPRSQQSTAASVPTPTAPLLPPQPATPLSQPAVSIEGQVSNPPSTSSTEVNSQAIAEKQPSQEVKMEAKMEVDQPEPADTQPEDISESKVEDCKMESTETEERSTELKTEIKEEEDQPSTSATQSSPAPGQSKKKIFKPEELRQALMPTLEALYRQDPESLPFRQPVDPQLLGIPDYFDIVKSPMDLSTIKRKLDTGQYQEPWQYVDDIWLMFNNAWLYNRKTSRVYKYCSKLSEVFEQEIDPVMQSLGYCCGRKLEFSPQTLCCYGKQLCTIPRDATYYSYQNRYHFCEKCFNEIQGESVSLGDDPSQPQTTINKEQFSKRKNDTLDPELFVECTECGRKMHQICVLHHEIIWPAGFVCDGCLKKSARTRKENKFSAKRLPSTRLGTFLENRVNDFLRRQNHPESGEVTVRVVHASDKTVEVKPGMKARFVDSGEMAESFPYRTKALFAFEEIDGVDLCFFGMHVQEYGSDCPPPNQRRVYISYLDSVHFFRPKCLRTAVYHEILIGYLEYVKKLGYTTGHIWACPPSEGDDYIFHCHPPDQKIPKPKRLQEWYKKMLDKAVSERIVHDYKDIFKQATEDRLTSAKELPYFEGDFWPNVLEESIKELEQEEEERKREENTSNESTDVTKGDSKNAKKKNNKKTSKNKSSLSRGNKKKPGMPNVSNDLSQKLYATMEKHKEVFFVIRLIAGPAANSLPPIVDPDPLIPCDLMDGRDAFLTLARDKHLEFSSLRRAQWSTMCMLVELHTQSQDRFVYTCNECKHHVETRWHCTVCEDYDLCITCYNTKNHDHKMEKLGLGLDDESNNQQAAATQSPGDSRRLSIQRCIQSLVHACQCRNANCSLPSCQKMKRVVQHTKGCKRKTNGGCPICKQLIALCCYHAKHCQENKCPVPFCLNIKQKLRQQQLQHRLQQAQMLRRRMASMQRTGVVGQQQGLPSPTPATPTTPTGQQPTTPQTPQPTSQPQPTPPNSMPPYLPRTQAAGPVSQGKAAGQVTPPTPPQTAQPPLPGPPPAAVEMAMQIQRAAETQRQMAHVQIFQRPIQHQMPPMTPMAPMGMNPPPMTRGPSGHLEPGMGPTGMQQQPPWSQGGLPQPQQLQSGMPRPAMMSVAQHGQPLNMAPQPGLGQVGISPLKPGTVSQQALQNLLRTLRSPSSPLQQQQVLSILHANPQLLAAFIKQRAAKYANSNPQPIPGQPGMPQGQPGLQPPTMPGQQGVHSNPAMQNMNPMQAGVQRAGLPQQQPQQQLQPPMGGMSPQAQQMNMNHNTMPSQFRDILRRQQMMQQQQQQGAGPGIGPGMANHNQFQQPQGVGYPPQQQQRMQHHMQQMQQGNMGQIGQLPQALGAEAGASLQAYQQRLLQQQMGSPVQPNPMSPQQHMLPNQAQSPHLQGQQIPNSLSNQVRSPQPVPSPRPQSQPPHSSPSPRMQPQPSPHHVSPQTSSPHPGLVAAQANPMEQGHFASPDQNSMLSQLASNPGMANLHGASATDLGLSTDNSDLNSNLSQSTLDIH

| HAT p300 activity inhibitory effect | IC50 (secondary screening, tested at 0.5, 1, 10 and 100 μM) [µM] | SMILES |
| --- | --- | --- |
| approximately 80% | 0.953 | COc1cc(/C=N/CCN2CCCCC2)cc(Cl)c1OCc1cccc(Cl)c1 [Candidate 12] |
| ≥ 90% |  | COc1cc(/C=N/Cc2ccc(C(=O)O)cc2)cc(Cl)c1OCc1cccc(Cl)c1 [Synthesis Example 19, (E)-4-(((3-chloro-4-((3-chlorobenzyl)oxy)-5-methoxybenzylidene)amino)methyl)benzoic acid] |
